Data on one compound can be found in US20120165403A1, “METHODS OF INHIBITING THE ACTIVITY OF HSP90 AND/OR ARYL HYDROCARBON RECEPTOR” (UNIVERSITY OF ROCHESTER, priority 2004, published 2012).

For this assay, the target named is T1, AhR (Mus musculus, UniProt P30561).
T1 construct: made in house; host or cells: coupled transcription/translation in rabbit reticulocyte lysate (TNT, Promega), 35S-labelled
T1 sequence (P30561 10-848): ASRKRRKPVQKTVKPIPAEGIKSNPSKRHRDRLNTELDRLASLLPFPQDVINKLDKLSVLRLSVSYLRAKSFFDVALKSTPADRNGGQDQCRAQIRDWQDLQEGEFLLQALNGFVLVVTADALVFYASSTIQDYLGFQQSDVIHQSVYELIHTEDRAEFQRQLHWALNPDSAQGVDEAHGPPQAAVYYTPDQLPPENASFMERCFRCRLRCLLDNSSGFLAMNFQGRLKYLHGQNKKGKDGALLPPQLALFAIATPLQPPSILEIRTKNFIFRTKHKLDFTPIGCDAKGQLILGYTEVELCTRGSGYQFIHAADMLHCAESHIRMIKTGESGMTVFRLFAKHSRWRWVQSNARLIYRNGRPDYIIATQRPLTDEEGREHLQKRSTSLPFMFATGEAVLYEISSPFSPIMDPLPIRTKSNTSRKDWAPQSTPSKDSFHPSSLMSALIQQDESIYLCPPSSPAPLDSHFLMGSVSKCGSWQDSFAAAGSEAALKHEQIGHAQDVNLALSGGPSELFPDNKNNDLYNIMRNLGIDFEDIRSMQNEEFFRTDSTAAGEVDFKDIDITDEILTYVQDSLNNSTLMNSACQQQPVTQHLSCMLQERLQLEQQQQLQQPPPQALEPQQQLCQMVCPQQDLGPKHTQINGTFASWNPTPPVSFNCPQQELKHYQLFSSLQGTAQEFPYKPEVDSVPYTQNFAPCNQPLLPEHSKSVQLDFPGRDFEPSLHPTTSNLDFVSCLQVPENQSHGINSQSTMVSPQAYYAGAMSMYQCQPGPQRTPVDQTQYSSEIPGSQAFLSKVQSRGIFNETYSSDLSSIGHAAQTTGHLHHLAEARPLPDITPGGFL
The experiment in a line: Affinity chromatography on EGCG-conjugated Sepharose, in vitro translated AhR. It is filed as binding, murine. The following applies: 35S-AhR in vitro translated in RRL. From the text:
Murine AhR and ARNT cDNA (obtained from J. Whitlock and O. Hankinson, respectively) were inserted into pcDNA3 (Invitrogen, Carlsbad, Calif.). Chicken hsp90 constructs (FIG. 5), c90711hsp (wild-type), c90G94D (wild-type point mutant gly94→Asp (Grenert et al., J. Biol. Chem. 272:23843-23850 (1997), which is hereby incorporated by reference in its entirety), c90D92A (wild-type point mutant Asp92→Ala (Sullivan et al., J. Biol. Chem. 268:20373-20379 (1993), which is hereby incorporated by reference in its entirety), c90N221 (wild-type truncation mutant encoding a.a. 221-728 (Sullivan et al., J. Biol. Chem. 268:20373-20379 (1993), which is hereby incorporated by reference in its entirety)), c90N303 (a.a. 303-728) and c90N538 (a.a. 538-728) were kind gifts from Dr. D. Toft (Rochester, Minn.). The C-terminal truncation mutant c900507 (a.a. 1-221) was obtained from Dr. L. Neckers (Rockville, Md.) (Grenert et al., J. Biol. Chem. 272:23843-23850 (1997); Marcu et al., J. Biol. Chem. 275:37181-37186 (2000), which are hereby incorporated by reference in their entirety). Human p23 cDNA was excised from pQE80-p23 (obtained from W. Chan Stockton, Calif.) by sequential digests using the restriction enzymes Sad (3′-end) and BamHI (5′-end) and inserted into the similarly digested pET28a (Novagen, Madison, Wis.). […]

Molecules are shown by their SMILES.

`O=C(O[C@@H]1Cc2c(O)cc(O)cc2O[C@@H]1c1cc(O)c(O)c(O)c1)c1cc(O)c(O)c(O)c1` [EGCG, epigallocatechin gallate]: the “binding of AhR to immobilized EGCG” value is reported as “not able to bind immobilized EGCG”.
